The text below walks through data of patent US8318759B2, “Pyrrolidine derivatives as NK3 receptor antagonists” (Hoffmann-La Roche Inc., priority 2009, dated 2012).

Structures are written as SMILES.

The target in the experiment is T1, human NK3 receptor (Homo sapiens, UniProt P29371).
T1 construct: expressed in transfected cells; host or cells: HEK293 cells (transient expression), membranes
T1 sequence (P29371 1-465): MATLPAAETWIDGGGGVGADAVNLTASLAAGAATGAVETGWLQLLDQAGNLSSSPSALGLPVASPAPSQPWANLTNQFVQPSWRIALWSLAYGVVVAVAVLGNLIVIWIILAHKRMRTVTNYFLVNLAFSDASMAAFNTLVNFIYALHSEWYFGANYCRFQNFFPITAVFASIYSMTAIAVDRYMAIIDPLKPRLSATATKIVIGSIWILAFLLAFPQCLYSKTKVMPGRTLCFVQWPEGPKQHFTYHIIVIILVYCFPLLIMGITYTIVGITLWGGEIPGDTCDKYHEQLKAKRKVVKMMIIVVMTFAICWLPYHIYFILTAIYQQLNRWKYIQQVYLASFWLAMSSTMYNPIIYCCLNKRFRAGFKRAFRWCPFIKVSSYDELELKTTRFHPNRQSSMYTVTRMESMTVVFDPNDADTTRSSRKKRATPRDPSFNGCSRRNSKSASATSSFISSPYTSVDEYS
As to the kind of experiment: [3H]SR142801 competition binding assay. Conditions: membrane from HEK293 cells transiently expressing recombinant human NK3 receptor; radioligand [3H]SR142801; Ki from IC50 by Cheng-Prussoff equation. The procedure: [^3H]SR142801 Competition Binding Assay
hNK3 receptor binding experiment were performed using [^3H]SR142801 (Catalog No. TRK1035, specific activity: 74.0 Ci/mmol, Amersham, GE Healthcare UK limited, Buckinghamshire, UK) and membrane isolated from HEK293 cells transiently expressing recombinant human NK3 receptor. After thawing, the membrane homogenates were centrifuged at 48,000×g for 10 min at 4° C., the pellets were resuspended in the 50 mM Tris-HCl, 4 mM MnCl2, 1 μM phosphoramidon, 0.1% BSA binding buffer at pH 7.4 to a final assay concentration of 5 μg protein/well. […] At the end of the incubation, membranes were filtered onto unitfilter (96-well white microplate with bonded GF/C filter preincubated 1 h in 0.3% PEI+0.3% BSA, Packard BioScience, Meriden, Conn.) with a Filtermate 196 harvester (Packard BioScience) and washed 4 times with ice-cold 50 mM Tris-HCl, pH 7.4 buffer. Nonspecific binding was measured in the presence of 10 μM SB222200 for both radioligands. The radioactivity on the filter was counted (5 min) on a Packard Top-count microplate scintillation counter with quenching correction after addition of 45 μl of microscint 40 (Canberra Packard S. A., Zürich, Switzerland) and shaking for 1 h. Inhibition curves were fitted according to the Hill equation: y=100/(1+(x/IC50)^nH), where nH=slope factor using Excel-fit 4 software (Microsoft). IC50 values were derived from the inhibition curve and the affinity constant (Ki) values were calculated using the Cheng-Prussoff equation Ki=IC50/(1+[L]/KD) where [L] is the concentration of radioligand and KD is its dissociation constant at the receptor, derived from the saturation isotherm. All experiments were performed in duplicate and the mean±standard error (SEM) of the individual Ki values was calculated.
Take `CS(=O)(=O)N1CCN(C(=O)N2C[C@H](CSc3ccc(C(F)(F)F)cc3)[C@@H](c3ccc(Cl)c(Cl)c3)C2)CC1` (racemic) [Example 1, (3SR,4RS)-[3-(3,4-Dichloro-phenyl)-4-(4-trifluoromethyl-phenylsulfanylmethyl)-pyrrolidin-1-yl]-(4-methanesulfonyl-piperazin-1-yl)-methanone]: the Ki came out at 0.0496 µM. With `CS(=O)(=O)N1CCN(C(=O)N2C[C@H](CSc3ccc(Cl)cc3)[C@@H](c3ccc(Cl)c(Cl)c3)C2)CC1` (racemic) [Example 2], the Ki came to 0.0459 µM.

With `CS(=O)(=O)N1CCN(C(=O)N2C[C@H](CSc3ccc(C#N)cc3)[C@@H](c3ccc(Cl)c(Cl)c3)C2)CC1` (racemic) [Example 4, (3SR,4RS)-4-[4-(3,4-Dichloro-phenyl)-1-(4-methanesulfonyl-piperazine-1-carbonyl)-pyrrolidin-3-ylmethylsulfanyl]-benzonitrile], the Ki was determined as 0.0617 µM. For the compound `CS(=O)(=O)N1CCN(C(=O)N2C[C@H](CSc3ccc(C(F)(F)F)cn3)[C@@H](c3ccc(Cl)c(Cl)c3)C2)CC1` (racemic) [Example 5, (3SR,4RS)-[3-(3,4-Dichloro-phenyl)-4-(5-trifluoromethyl-pyridin-2-ylsulfanylmethyl)-pyrrolidin-1-yl]-(4-methanesulfonyl-piperazin-1-yl)-methanone], the Ki is 0.0024 µM. As to `CS(=O)(=O)N1CCN(C(=O)N2C[C@H](CSc3ccc(Cl)cn3)[C@@H](c3ccc(Cl)c(Cl)c3)C2)CC1` (racemic) [Example 6, (3SR,4RS)-[3-(5-Chloro-pyridin-2-ylsulfanylmethyl)-4-(3,4-dichloro-phenyl)-pyrrolidin-1-yl]-(4-methanesulfonyl-piperazin-1-yl)-methanone], the Ki turned out to be 0.0022 µM. For the compound `CS(=O)(=O)N1CCN(C(=O)N2CC(CNc3ccc(C(F)(F)F)cn3)C(c3ccc(Cl)c(Cl)c3)C2)CC1` (racemic) [Example 12, (3SR,4RS)-{3-(3,4-Dichloro-phenyl)-4-[(5-trifluoromethyl-pyridin-2-ylamino)-methyl]-pyrrolidin-1-yl}-(4-methanesulfonyl-piperazin-1-yl)-methanone], the Ki was 0.02 µM. Take `CN(C[C@H]1CN(C(=O)N2CCN(S(C)(=O)=O)CC2)C[C@@H]1c1ccc(Cl)c(Cl)c1)c1ccc(C(F)(F)F)cn1` (racemic) [Example 15]: the Ki worked out at 0.0788 µM. In the case of `N#Cc1ccc(C(=O)N2CC(CNc3ccc(C(F)(F)F)cn3)C(c3ccc(Cl)c(Cl)c3)C2)cn1` (racemic) [Example 17, (3SR,4RS)-5-{3-(3,4-Dichloro-phenyl)-4-[(5-trifluoromethyl-pyridin-2-ylamino)-methyl]-pyrrolidine-1-carbonyl}-pyridine-2-carbonitrile], the Ki was found to be 0.0096 µM. For the compound `CC(=O)N1CCC(C(=O)N2C[C@H](CNc3ccc(C(F)(F)F)cn3)[C@@H](c3ccc(Cl)c(Cl)c3)C2)CC1` (racemic) [Example 19], the Ki was determined as 0.0103 µM. In the case of `Cc1cc(C(=O)N2C[C@H](CNc3ccc(C(F)(F)F)cn3)[C@@H](c3ccc(Cl)c(Cl)c3)C2)cnn1` (racemic) [Example 20] it was 0.011 µM; in that of `CC1(C(=O)N2CCC(C(=O)N3C[C@H](CNc4ccc(C(F)(F)F)cn4)[C@@H](c4ccc(Cl)c(Cl)c4)C3)CC2)CC1` (racemic) [Example 21], 0.0089 µM. Next, `O=C(c1ccnnc1)N1C[C@H](CNc2ccc(C(F)(F)F)cn2)[C@@H](c2ccc(Cl)c(Cl)c2)C1` (racemic) [Example 22]: 0.0986 µM.

In the case of `Cc1cc(C(=O)N2C[C@H](CNc3ccc(C(F)(F)F)cn3)[C@@H](c3ccc(Cl)c(Cl)c3)C2)c(C)nn1` (racemic) [Example 23], the Ki came out at 0.0109 µM. Consider `CC1(C(=O)N2CCC(C(=O)N3C[C@H](CNc4ncc(Cl)cn4)[C@@H](c4ccc(Cl)c(Cl)c4)C3)CC2)CC1` (racemic) [Example 24], for which the Ki stood at 0.0165 µM. As to `CC(=O)N1CCC(C(=O)N2C[C@H](CNc3ncc(Cl)cn3)[C@@H](c3ccc(Cl)c(Cl)c3)C2)CC1` (racemic) [Example 25], the Ki was found to be 0.0195 µM. With `N#Cc1ccc(C(=O)N2C[C@H](CNc3ncc(Cl)cn3)[C@@H](c3ccc(Cl)c(Cl)c3)C2)cn1` (racemic) [Example 26], the Ki is 0.0463 µM. On to `Cc1cc(C(=O)N2C[C@H](CNc3ncc(Cl)cn3)[C@@H](c3ccc(Cl)c(Cl)c3)C2)cnn1` (racemic) [Example 27], for which the Ki turned out to be 0.0247 µM. Next, `CS(=O)(=O)N1CCN(C(=O)N2C[C@H](CNc3ccc(C(F)(F)F)cc3)[C@@H](c3ccc(Cl)c(Cl)c3)C2)CC1` (racemic) [Example 28]: 0.0585 µM; `CS(=O)(=O)N1CCN(C(=O)N2C[C@H](CNc3ccc(Cl)cn3)[C@@H](c3ccc(Cl)c(Cl)c3)C2)CC1` (racemic) [Example 30]: 0.0361 µM; `CS(=O)(=O)N1CCN(C(=O)N2CC(CNc3ncc(C#N)cn3)C(c3ccc(Cl)c(Cl)c3)C2)CC1` (racemic) [Example 31, (3SR,4RS)-2-{[4-(3,4-Dichloro-phenyl)-1-(4-methanesulfonyl-piperazine-1-carbonyl)-pyrrolidin-3-ylmethyl]-amino}-pyrimidine-5-carbonitrile]: 0.08 µM. In the case of `CC(=O)N1CCC(C(=O)N2C[C@H](CNc3ncc(C(F)(F)F)cn3)[C@@H](c3ccc(Cl)c(Cl)c3)C2)CC1` (racemic) [Example 33] it was 0.0075 µM.

For the compound `CC1(C(=O)N2CCC(C(=O)N3C[C@H](CNc4ncc(C(F)(F)F)cn4)[C@@H](c4ccc(Cl)c(Cl)c4)C3)CC2)CC1` (racemic) [Example 34], the Ki is 0.0062 µM.

Turning to `Cc1cc(C(=O)N2C[C@H](CNc3ncc(C(F)(F)F)cn3)[C@@H](c3ccc(Cl)c(Cl)c3)C2)cnn1` (racemic) [Example 35], the Ki was determined as 0.009 µM.

On to `CC(Nc1ccc(C#N)cn1)[C@H]1CN(C(=O)N2CCN(S(C)(=O)=O)CC2)C[C@@H]1c1ccc(Cl)c(Cl)c1` (mixture of isomers) [Example 36, (3SR,4RS) 6-{1-(RS)-[4-(3,4-Dichloro-phenyl)-1-(4-methanesulfonyl-piperazine-1-carbonyl)-pyrrolidin-3-yl]-ethylamino}-nicotinonitrile and (3SR,4RS) 6-{1-(SR)-[4-(3,4-Dichloro-phenyl)-1-(4-methanesulfonyl-piperazine-1-carbonyl)-pyrrolidin-3-yl]-ethylamino}-nicotinonitrile], for which the Ki was 0.0682 µM. As for `CC(Nc1ccc(C(F)(F)F)cn1)[C@H]1CN(C(=O)N2CCN(S(C)(=O)=O)CC2)C[C@@H]1c1ccc(Cl)c(Cl)c1` (mixture of isomers) [Example 37, (3SR,4RS) {3-(3,4-Dichloro-phenyl)-4-[1-(RS)-(5-trifluoromethyl-pyridin-2-ylamino)-ethyl]-pyrrolidin-1-yl}-(4-methanesulfonyl-piperazin-1-yl)-methanone and (3SR,4RS) {3-(3,4-Dichloro-phenyl)-4-[1-(SR)-(5-trifluoromethyl-pyridin-2-ylamino)-ethyl]-pyrrolidin-1-yl}-(4-methanesulfonyl-piperazin-1-yl)-methanone], the Ki amounted to 0.0549 µM. As to `C[C@@H](Nc1ccc(C(F)(F)F)cn1)[C@H]1CN(C(=O)N2CCN(S(C)(=O)=O)CC2)C[C@@H]1c1ccc(Cl)c(Cl)c1` (racemic) [Example 38, (3SR,4RS) {3-(3,4-Dichloro-phenyl)-4-[1-(RS)-(5-trifluoromethyl-pyridin-2-ylamino)-ethyl]-pyrrolidin-1-yl}-(4-methanesulfonyl-piperazin-1-yl)-methanone], the Ki was 0.0223 µM.

On to `CC1(C(=O)N2CCC(C(=O)N3CC(CNc4ccc(Cl)cn4)C(c4ccc(Cl)cc4)C3)CC2)CC1` (racemic) [Example 41, (3SR,4RS) {3-(4-Chloro-phenyl)-4-[(5-chloro-pyridin-2-ylamino)-methyl]-pyrrolidin-1-yl}-[1-(1-methyl-cyclopropanecarbonyl)-piperidin-4-yl]-methanone], for which the Ki amounted to 0.0863 µM. As to `CC1(C(=O)N2CCC(C(=O)N3C[C@H](CNc4ncc(C(F)(F)F)cn4)[C@@H](c4ccc(F)cc4)C3)CC2)CC1` (racemic) [Example 46], the Ki worked out at 0.0228 µM. `CN(C[C@H]1CN(C(=O)C2CCN(C(=O)C3(C)CC3)CC2)C[C@@H]1c1ccc(F)cc1)c1ncc(C(F)(F)F)cn1` (racemic) [Example 47]: the Ki is 0.0716 µM.

Broadly, the Ki is the dissociation constant of the complex between target and ligand, obtained from inhibition or displacement.
